From paper PMC7301889 (Journal of computer-aided molecular design, 2019)

Assay: Potentiometric
Type: physicochemical
Details: 1-octanol/water biphasic system, log P (mean ± SEM), octanol / ISA water, neutral species, 25.0 ± 0.5 °C, 150 mM KCl, mean ± SEM of at least three independent replicates

Row | SMILES | logP
1 | FC(F)(F)c1cccc(Nc2ncnc3ccccc23)c1 [SM02, c1ccc2c(c1)c(ncn2)Nc3cccc(c3)C(F)(F)F] | 4.09 ± 0.03
2 | Clc1ccc(CNc2ncnc3ccccc23)cc1 [SM04, c1ccc2c(c1)c(ncn2)NCc3ccc(cc3)Cl] | 3.98 ± 0.03
3 | Cc1ccc2[nH]c(=O)c(CC(=O)O)c(-c3ccccc3)c2c1 [SM08, Cc1ccc2c(c1)c(c(c(=O)[nH]2)CC(=O)O)c3ccccc3] | 3.1 ± 0.03
4 | COc1cccc(Nc2ncnc3ccccc23)c1 [SM09, COc1cccc(c1)Nc2c3ccccc3ncn2.Cl] | 3.03 ± 0.07
5 | Nc1ncnc2c1cnn2-c1ccccc1 [SM11, c1ccc(cc1)n2c3c(cn2)c(ncn3)N] | 2.1 ± 0.04
6 | Clc1cccc(Nc2ncnc3ccccc23)c1 [SM12, c1ccc2c(c1)c(ncn2)Nc3cccc(c3)Cl.Cl] | 3.83 ± 0.03
7 | COc1cc2ncnc(Nc3cccc(C)c3)c2cc1OC [SM13, Cc1cccc(c1)Nc2c3cc(c(cc3ncn2)OC)OC] | 2.92 ± 0.04
8 | Nc1ccc2c(c1)ncn2-c1ccccc1 [SM14, c1ccc(cc1)n2cnc3c2ccc(c3)N] | 1.95 ± 0.03
9 | Oc1ccc(-n2cnc3ccccc32)cc1 [SM15, c1ccc2c(c1)ncn2c3ccc(cc3)O] | 3.07 ± 0.03
10 | O=C(Nc1ccncc1)c1c(Cl)cccc1Cl [SM16, c1cc(c(c(c1)Cl)C(=O)Nc2ccncc2)Cl] | 2.62 ± 0.01
